≈ marks a conversion by molar mass, not a printed value.
Test system: S. aureus
Experiment: Antimicrobial activity MIC, microdilution whole cell assay, S. aureus
Assay type: cell-based
Settings: Staphylococcus aureus; standard whole cell assay; read-out: MIC against S. aureus
Experimental: Assay Protocol for Antimicrobial Activity. Minimum inhibitory concentrations (MICs) were determined using the microdilution method in 96-well format plates. Compounds were suspended in DMSO at 5 or 10 mg/ml and stored at 4° C. until used. They were diluted in Mueller-Hinton Broth (MHB) or Trypticase Soy Broth (TSB) and used for MIC determination. The range of concentrations tested was 64-0.0625 μg/ml final concentration using a two-fold dilution system.
The inoculum was prepared from cells grown on Trypticase Soy Agar (TSA) and incubated overnight at 35° C., 5 to 10 colonies were used to inoculate MHB or TSB broths, and the culture was incubated overnight at 35° C. The overnight culture was diluted 1:10, incubated for one hour at 35° C., diluted to the appropriate inoculum size and applied to the wells containing broth and test compound. Inoculum sizes were 1×10^5 to 5×10^5 CFU/ml. Strains used included P. aeruginosa VPAE1001, E. faecium V VEFA1001, E. faecium VanA VEFA1002, S. aureus VSAU1003, S. aureus MRSA VSAU1004, E. coli VEC05, and E. coli (arc-) VEC05.
Plates were incubated at 35° C. for 48 hours and MIC were recorded after 18 hours of incubation, for bacteria, and 48 for yeasts.

**Q.** How did the MIC turn out when `CON=Cc1ccc(/C=C/C(=O)NC[C@H]2CN(c3ccc(C(N)=O)c(F)c3)C(=O)O2)cc1` was run?
**A.** The MIC was roughly 0.5 µg/mL (≈ 1.14 µM).

Reference: patent US6562844B2, “Oxazolidinone combinatorial libraries, compositions and methods of preparation” (Pharmacia & Upjohn Company, priority 1998, dated 2003)
